From publication PMC3961306, “Comparison of the Cancer Gene Targeting and Biochemical Selectivities of All Targeted Kinase Inhibitors Approved for Clinical Use” (PLoS ONE, 2014)
pIC50: −log10 of the molar value. Like-named read-outs stand apart in the source and are kept apart here.

Legend:
[1] = test system: forty-four human cancer cell lines; test: Cell proliferation assay (ATPlite, 72 hours) in the 44 cell line Oncolines panel; assay type: cell-based; conditions: Homo sapiens
[2] = molecular target: T1, panel of more than 300 wild-type and mutant kinases (313 kinase panel) (Homo sapiens, UniProt P00540); test: Kinase profiling in a biochemical assay panel (mobility shift assays and ELISA), %-inhibition at 1 μM; selectivity entropy; conditions: kinase MOS; 1 μM
T1 sequence (P00540 1-346): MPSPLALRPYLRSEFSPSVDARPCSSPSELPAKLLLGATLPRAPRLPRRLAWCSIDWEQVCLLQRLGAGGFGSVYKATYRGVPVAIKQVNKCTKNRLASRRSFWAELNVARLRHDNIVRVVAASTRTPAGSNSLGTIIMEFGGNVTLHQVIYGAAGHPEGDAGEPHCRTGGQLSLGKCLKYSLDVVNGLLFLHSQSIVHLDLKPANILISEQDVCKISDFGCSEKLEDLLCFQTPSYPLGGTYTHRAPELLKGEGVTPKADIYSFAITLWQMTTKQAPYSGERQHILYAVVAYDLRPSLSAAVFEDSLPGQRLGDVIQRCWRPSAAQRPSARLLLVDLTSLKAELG

[3] = molecular target: panel of more than 300 wild-type and mutant kinases (313 kinase panel) (Homo sapiens, UniProt P07947, T348I); test: as above; conditions: kinase YES(T348I); compound at 1 μM
[4] = molecular target: panel of more than 300 wild-type and mutant kinases (313 kinase panel) (Homo sapiens, UniProt P11362, V561M); test: as above; conditions: kinase FGFR1(V561M); compound at 1 μM
[5] = molecular target: panel of more than 300 wild-type and mutant kinases (313 kinase panel) (Homo sapiens, UniProt P15056); test: as above; conditions: kinase BRAF; 1 μM compound
[6] = molecular target: panel of more than 300 wild-type and mutant kinases (313 kinase panel) (Homo sapiens, UniProt P35968); test: as above; conditions: kinase KDR; compound at 1 μM
[7] = molecular target: panel of more than 300 wild-type and mutant kinases (313 kinase panel) (Homo sapiens, UniProt P42684); test: as above; conditions: kinase ARG; 1 μM compound
[8] = molecular target: panel of more than 300 wild-type and mutant kinases (313 kinase panel) (Homo sapiens, UniProt P51451); test: as above; conditions: kinase BLK; 1 μM compound
[9] = molecular target: panel of more than 300 wild-type and mutant kinases (313 kinase panel) (Homo sapiens, UniProt P51617); test: as above; conditions: kinase IRAK1; compound at 1 μM
[10] = A 172, read-out: cell panel IC50, A-172
[11] = A204, cell line A-204, read-out: cell panel IC50, A-204
[12] = A498, read-out: cell panel IC50, A-498
[13] = A549, read-out: cell panel IC50, A-549
[14] = A-375, cell line A375, read-out: cell panel IC50, A375
[15] = A-427, read-out: cell panel IC50, A-427
[16] = AU565, read-out: cell panel IC50, AU-565
[17] = BT-549, read-out: cell panel IC50, BT-549
[18] = HCT-116, read-out: cell panel IC50, HCT-116
[19] = K562, read-out: cell panel IC50, K-562
[20] = LS174T, read-out: cell panel IC50, LS 174T
[21] = SHP77, cell line SHP-77, read-out: cell panel IC50, SHP-77
[22] = SW-620, cell line SW620, read-out: cell panel IC50, SW620
[23] = U2OS, cell line U-2 OS, read-out: cell panel IC50, U-2 OS
[24] = cell line J82, read-out: cell panel IC50, J82
[25] = cell line PA-1, read-out: cell panel IC50, PA-1
[26] = cell line SJCRH30, read-out: cell panel IC50, SJCRH30
[27] = cell line SR, read-out: cell panel IC50, SR
[28] = U-87 MG cell line, ATPlite, 72 hours, read-out: IC50 in cell proliferation assay (table S5 cellpanel data)
[29] = cell line 769-P, read-out: cell panel IC50, 769-P
[30] = cell line 786-0, read-out: cell panel IC50, 786-0
[31] = cell line ACHN, read-out: cell panel IC50, ACHN
[32] = cell line AN3 CA, read-out: cell panel IC50, AN3 CA
[33] = cell line BT-20, read-out: cell panel IC50, BT-20
[34] = cell line BxPC-3, read-out: cell panel IC50, BxPC-3
[35] = cell line C-33 A, read-out: cell panel IC50, C-33 A
[36] = cell line CAL 27, read-out: cell panel IC50, CAL 27
[37] = cell line CCRF-CEM, read-out: cell panel IC50, CCRF-CEM
[38] = cell line DLD-1, read-out: cell panel IC50, DLD-1
[39] = cell line FaDu, read-out: cell panel IC50, FaDu
[40] = cell line HCT-15, read-out: cell panel IC50, HCT-15
[41] = cell line Hs 578T, read-out: cell panel IC50, Hs 578T
[42] = cell line Jurkat E6.1, read-out: cell panel IC50, Jurkat E6.1
[43] = cell line LoVo, read-out: cell panel IC50, LoVo
[44] = cell line MG-63, read-out: cell panel IC50, MG-63
[45] = cell line MOLT-4, read-out: cell panel IC50, MOLT-4
[46] = cell line MeWo, read-out: cell panel IC50, MeWo
[47] = cell line NCI-H82, read-out: cell panel IC50, NCI-H82
[48] = cell line NCI-H460, read-out: cell panel IC50, NCI-H460
[49] = cell line OVCAR-3, read-out: cell panel IC50, OVCAR-3
[50] = cell line RPMI-7951, read-out: cell panel IC50, RPMI-7951
[51] = cell line SK-N-AS, read-out: cell panel IC50, SK-N-AS
[52] = cell line SW48, read-out: cell panel IC50, SW48
[53] = cell line SW480, read-out: cell panel IC50, SW480

Structure (SMILES): CO[C@H]1C[C@@H]2CC[C@@H](C)[C@@](O)(O2)C(=O)C(=O)N2CCCC[C@H]2C(=O)O[C@H]([C@H](C)C[C@@H]2CC[C@@H](OC(=O)C(C)(CO)CO)[C@H](OC)C2)CC(=O)[C@H](C)/C=C(\C)[C@@H](O)[C@@H](OC)C(=O)[C@H](C)C[C@H](C)/C=C/C=C/C=C/1C [temsirolimus]
- pIC50 [1, 10]: 8.00
- pIC50 [1, 11]: 5.61
- pIC50 [1, 12]: 5.82
- pIC50 [1, 13]: 6.13
- pIC50 [1, 14]: < 5.50
- pIC50 [1, 15]: 7.02
- pIC50 [1, 16]: 7.20
- pIC50 [1, 17]: 7.77
- pIC50 [1, 18]: 6.60
- pIC50 [1, 19]: < 5.50
- pIC50 [1, 20]: 7.06
- pIC50 [1, 21]: < 5.50
- pIC50 [1, 22]: < 5.50
- pIC50 [1, 23]: 7.39
- pIC50 [1, 24]: 7.59
- pIC50 [1, 25]: 5.88
- pIC50 [1, 26]: < 5.50
- pIC50 [1, 27]: 8.10
- pIC50 [1, 28]: 6.34
- pIC50 [1, 29]: 8.05
- pIC50 [1, 30]: 6.37
- pIC50 [1, 31]: < 5.50
- pIC50 [1, 32]: 6.10
- pIC50 [1, 33]: 7.48
- pIC50 [1, 34]: < 5.50
- pIC50 [1, 35]: 7.47
- pIC50 [1, 36]: < 5.50
- pIC50 [1, 37]: 7.82
- pIC50 [1, 38]: 6.90
- pIC50 [1, 39]: < 5.50
- pIC50 [1, 40]: 5.61
- pIC50 [1, 41]: 7.00
- pIC50 [1, 42]: 6.91
- pIC50 [1, 43]: < 5.50
- pIC50 [1, 44]: 5.65
- pIC50 [1, 45]: 7.68
- pIC50 [1, 46]: 7.72
- pIC50 [1, 47]: < 5.50
- pIC50 [1, 48]: 7.33
- pIC50 [1, 49]: < 5.50
- pIC50 [1, 50]: 8.92
- pIC50 [1, 51]: 6.62
- pIC50 [1, 52]: < 5.50
- pIC50 [1, 53]: 7.74
- %-inhibition of MOS [2]: -1.43%
- %-inhibition of YES(T348I) [3]: -0.177%
- %-inhibition of FGFR1(V561M) [4]: -9%
- %-inhibition, BRAF [5]: -3.36%
- %-inhibition of KDR [6]: -7%
- %-inhibition, ARG [7]: -1.55%
- %-inhibition, BLK [8]: -12%
- %-inhibition of IRAK1 [9]: 13%

Structure (SMILES): CC(=O)Nc1cccc(-n2c(=O)n(C3CC3)c(=O)c3c(Nc4ccc(I)cc4F)n(C)c(=O)c(C)c32)c1 [trametinib]
- pIC50 [1, 10]: 6.96
- pIC50 [1, 11]: 6.20
- pIC50 [1, 12]: 4.65
- pIC50 [1, 13]: 7.24
- pIC50 [1, 14]: 7.89
- pIC50 [1, 15]: 7.77
- pIC50 [1, 16]: 4.71
- pIC50 [1, 17]: 4.75
- pIC50 [1, 18]: 7.46
- pIC50 [1, 19]: 7.43
- pIC50 [1, 20]: 7.43
- pIC50 [1, 21]: < 4.50
- pIC50 [1, 22]: 8.87
- pIC50 [1, 23]: 6.51
- pIC50 [1, 24]: < 4.50
- pIC50 [1, 25]: 6.36
- pIC50 [1, 26]: 6.11
- pIC50 [1, 27]: 6.02
- pIC50 [1, 28]: 6.64
- pIC50 [1, 29]: 7.07
- pIC50 [1, 30]: 4.59
- pIC50 [1, 31]: 6.30
- pIC50 [1, 32]: 4.87
- pIC50 [1, 33]: < 4.50
- pIC50 [1, 34]: 7.54
- pIC50 [1, 35]: 8.10
- pIC50 [1, 36]: 7.24
- pIC50 [1, 37]: 4.55
- pIC50 [1, 38]: 6.31
- pIC50 [1, 39]: 7.85
- pIC50 [1, 40]: 5.69
- pIC50 [1, 41]: 6.43
- pIC50 [1, 42]: < 4.50
- pIC50 [1, 43]: 8.10
- pIC50 [1, 44]: 6.92
- pIC50 [1, 45]: 4.71
- pIC50 [1, 46]: 7.48
- pIC50 [1, 47]: 4.61
- pIC50 [1, 48]: 7.85
- pIC50 [1, 49]: < 4.50
- pIC50 [1, 50]: 8.00
- pIC50 [1, 51]: 8.02
- pIC50 [1, 52]: 8.92
- pIC50 [1, 53]: 6.24
- %-inhibition of MOS [2]: 42%
- %-inhibition of YES(T348I) [3]: -2.82%
- %-inhibition of FGFR1(V561M) [4]: -3.3%
- %-inhibition, BRAF [5]: 78%
- %-inhibition of KDR [6]: -0.549%
- %-inhibition, ARG [7]: -4%
- %-inhibition, BLK [8]: -2.79%
- %-inhibition of IRAK1 [9]: 6%
